Converted amounts (≈) assume the structure as drawn. Marks after values point to notes of the source that are not given here.
Tests used:
[1] = tested on: P. asymbiotica subsp. australis cells; assay: Cell aggregation (cross-linking) assay; type: cell-based, Photorhabdus asymbiotica subsp. australis; conditions: three independent measurements
From the text: Because of the aggregation of PHL by calixarenes and dendrimers during SPR and ITC experiments, we decided to compare tetravalent compounds at a higher level. We performed a series of in vitro aggregation assays to reveal their aggregation properties towards P. asymbiotica subsp. australis (Table 4, Fig. 5). Prior to each assay, we confirmed the absence of aggregates in two negative controls – bacterial cells in PBS buffer and in the presence of azide 1 as a monomer. With all chosen compounds, we observed bacterial aggregates of a variable size that confirmed that they are capable of interacting with a cell surface. This effect may be caused by interaction of the multivalent inhibitors with PHL or other receptors. The concentration of the first appearance of aggregates varied according to the nature of the ligand used. […] An unexpected observation was that calixarene 7 had the lowest aggregation potential. In contrast to other techniques (hemagglutination, SPR and ITC), where calixarenes 6 and 7 provided similar results, during cross-linking experiments calixarene 7 was four times worse than calixarene 6. At the same time, both tetrameric calixarenes 6 and 7 are in a 1,3-alternate conformation with the two-faced presentation of the fucopyranosyl epitopes on opposite regions probably occupying a similar spatial orientation. The only difference is the tert-Bu group on the upper rim in calixarene 6, which might contribute to nonpolar interactions with whole P. asymbiotica cells.
P. asymbiotica subsp. australis was inoculated from stock cells stored at −80 °C into a standard LB media and were grown in 30 °C under an orbital shaking overnight. Bacterial growth was tracked by measuring the optical density of the broth at 600 nm (OD600) using a spectrophotometer (Biochrom Ltd., BioPhotometer WGA CO 8000 Biowave). Cells were harvested when reaching an OD600 = 0.5. The culture was centrifuged at 4,300 g and room temperature for 2 minutes (Minispin, Eppendorf, Germany) and cells were then washed three times with PBS buffer. Cells were diluted in PBS to OD600 of 2.0 and kept in a fridge until performing the aggregation assay.
P. asymbiotica subsp. australis cells and fucosylated compounds in a concentration ranging from 50 mM to 3.125 mM were gently mixed in a 9:1 (v/v) ratio. The reaction mixtures were left at room temperature for 10 minutes. 5 µl of reaction mixture was then transferred onto a microscope slide and observed under a fluorescence microscope (OLYMPUS IX81 Microscope IX81F-3 with IX2-UCB-2 Controller and X-Cite 120PC Q; Olympus and Excelitas Technologies, Japan, resp. USA). As a negative control, bacterial cells with/without azide 1 as a monomer were used. Three independent measurements were performed.

PHL [2] = target: T1, PHL (Photorhabdus asymbiotica, UniProt C7BLE4); assay: SPR competitive inhibition of PHL binding to α-L-fucoside sensor chip; conditions: for IC50: 25 °C, three independent measurements; for β L-Fuc (affinity improvement factor): IC50,basic unit/(valency × IC50,ligand), basic unit L-Fuc; for PotencyL-Fuc: IC50 L-fucose / IC50 ligand
Experimental: To analyse the competitive inhibition of PHL binding to a multivalent surface, the surface plasmon resonance (SPR) technique was employed. A sensor chip presenting α-L-fucopyranoside residues was treated with a constant concentration of PHL, while an increasing concentration of the ligands was used to determine IC50 (Table 2, Fig. 3). […] To assess the contribution of valency to the affinity increase, an affinity improvement factor β was calculated as the relationship IC50,basic unit/(valency × IC50,ligand)[30].
Surface plasmon resonance (SPR) experiments were performed on a BIAcore T200 instrument (GE Healthcare, UK) at 25 °C, using buffer A supplemented with 0.05% Tween 20 as a running buffer. α-L-fucoside was immobilized onto CM5 sensor chip (GE Healthcare, UK) covered with a carboxymethylated dextran matrix. The sensor chip surface was activated with N-ethyl-N-(3-dimethylaminopropyl)carbodiimide/N-hydroxysuccinimide solution and then coated with streptavidin using the manufacturer’s standard protocol using HBS buffer (10 mM HEPES, 150 mM NaCl, 0.05% Tween 20, pH 7. 5). Unreacted groups were blocked with 1 M ethanolamine-HCl, pH 8.5. Biotinylated carbohydrate (biotinilated monomeric probes, Lectinity, Russia) was injected onto particular measuring channel and pure biotin on blank channel at a flow rate of 5 μl/min.
SPR inhibition measurements were carried out on measuring channel with L-fucoside at a flow rate of 5 µl/min. PHL was diluted to a concentration of 20 μg/ml by the buffer A supplemented with 0.05% Tween 20, mixed 1:1 (v/v) with various concentrations of inhibitors (500–5 μM) in the same buffer and injected onto the sensor chip. The response of lectin bound to the sugar surface at equilibrium was plotted against the concentration of inhibitor in order to determine IC50 (concentration of inhibitor resulting in 50% inhibition of binding). As IC50 is not a constant and depends on the experimental set-up, a parameter called potency was used for characterization. The potency of a tested inhibitor is the ratio of IC50 of a chosen standard inhibitor (in this case L-fucose) and the inhibitor in question. Pure PHL lectin was used as a control (0% inhibition) and channel with pure biotin served as a blank. IC50 was determined from triplicates.

PHL [3] = target: T1, PHL; assay: Hemagglutination inhibition assay with PHL (papain-treated human RBCs O); type: cell-based; conditions: for MIC (minimal inhibitory concentration, hemagglutination by PHL): RBC O, two independent measurements; for PotencyL-Fuc / β L-Fuc (affinity improvement factor) / β Azide1 (affinity improvement factor) / PotencyAzide1: hemagglutination; for PotencyL-Fuc: MIC L-fucose / MIC ligand; for β L-Fuc (affinity improvement factor): MICbasic unit/(valency × MICligand), basic unit L-Fuc; for β Azide1 (affinity improvement factor): basic unit azide 1; for PotencyAzide1: relative to azide 1
Experimental: The set of potential ligands 1–10 with different levels of fucosylation was tested, and their inhibition potency on hemagglutination by PHL was assessed (Table 1, Fig. 2). […] To assess the contribution of valency to the affinity increase, an affinity improvement factor β was calculated as the relationship MICbasic unit/(valency × MICligand).
Human red blood cells (RBCs) O were processed according to previously published work[16]. In brief, RBCs O treated with sodium citrate were washed four times by PBS buffer (137 mM NaCl, 2.7 mM KCl, 8 mM Na2HPO4, 1.47 mM KH2PO4, pH 7.4), diluted to 50% by PBS with 0.005% (w/w) sodium azide and treated by 0.1% papain for the duration of 30 minutes.
Hemagglutination inhibition assay was performed for specificity and semi-quantitative affinity of the PHL interaction with the compounds. All carbohydrate inhibitors in 50 mM starting concentration were serially diluted in the PBS buffer and used for a determination of the lowest inhibiting concentration. As a blank, the PBS buffer supplemented with the appropriate amount of DMSO was used in order to exclude potential interference with the interaction. The individual samples were mixed with the lectin in concentration 2 mg/ml in a 5 μl:5 μl ratio. Thereafter, 10 μl of 10% RBCs O in PBS buffer was added, thoroughly mixed and incubated for 10 minutes at room temperature. Following incubation, the mixture was again mixed and the reaction was observed on microscope slides using Levenhuk 2L NG microscope with Levenhuk D2L digital camera (Levenhuk, USA). Imagines were obtained via software ToupView for Windows (Levenhuk). The positive (PHL without inhibitor) and negative control (reaction without PHL) were prepared and processed in the same way using the appropriate volume of PBS buffer instead of the not included components. The lowest concentration of inhibitor able to inhibit agglutination was determined and compared with the standard (L-fucose). Minimal inhibitory concentrations (MIC) of synthesised inhibitors were determined from two independent measurements.

PHL [4] = target: T1, PHL; assay: Isothermal titration calorimetry of PHL with ligands; type: binding; conditions: for n (stoichiometry): two independent measurements; for Potency L-Fuc: KD L-fucose / KD ligand; for β L-Fuc (affinity improvement factor): KD,basic unit/(valency × KD,ligand), basic unit L-Fuc
From the text: The binding of PHL to different α-L-fucoside compounds was further characterized by isothermal titration calorimetry (ITC), enabling determination of the complete thermodynamic profile of the molecular interactions (Table 3, Fig. 4). […] Because of this, it was not possible to evaluate the data, despite the obvious interaction. The dendrimers also cross-linked/aggregated the protein as with calixarenes, however the curves provided clear outcomes with an affinity in the low micromolar range. The dissociation constants (KD) of all dendrimers correlate with their valency – the higher number of fucose, the more decreased KD. […] The stoichiometry value n corresponds to the number of terminal fucoses per ligand molecule. The n value decreases from 4 to 1 as the number of fucose units increases from 1 to 12 (Table 3).
PHL protein in buffer A was equilibrated at room temperature at least for 30 min before ITC measurement. All ITC experiments were performed using ITC200 calorimeter (Malvern Panalytical, UK) at 25 °C. Carbohydrate ligands dissolved in buffer A were used at different concentrations. Protein in the calorimeter cell (50 μM) was titrated by consecutive additions (2 μl) of the ligand (1.5–5 mM) in the syringe while stirring at 1000 rpm. Integrated heat effects were analysed by nonlinear regression using a single-site binding model and global fitting in Origin 7 software (Microcal Instruments)[37]. The thermodynamic parameters of synthesised inhibitors were determined from two independent measurements.

T1 sequence (C7BLE4 entry or part of it): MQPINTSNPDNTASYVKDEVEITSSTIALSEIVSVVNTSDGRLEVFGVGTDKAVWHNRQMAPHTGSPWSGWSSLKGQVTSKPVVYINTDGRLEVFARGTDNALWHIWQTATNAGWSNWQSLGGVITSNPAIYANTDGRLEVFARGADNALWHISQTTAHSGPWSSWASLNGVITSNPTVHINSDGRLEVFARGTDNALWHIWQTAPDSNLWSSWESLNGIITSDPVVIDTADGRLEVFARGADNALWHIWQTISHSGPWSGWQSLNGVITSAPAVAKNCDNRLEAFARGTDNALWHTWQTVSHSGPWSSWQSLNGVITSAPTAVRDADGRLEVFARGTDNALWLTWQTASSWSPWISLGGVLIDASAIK

| Compound | IC50 (PHL [2]) | β L-Fuc (affinity improvement factor) (PHL [2]) | PotencyL-Fuc (PHL [2]) | β Azide1 (affinity improvement factor) (PHL [2]; basic unit azide 1) | PotencyAzide1 (PHL [2]; relative to azide 1) | MIC (minimal inhibitory concentration, hemagglutination by PHL) (PHL [3]) | PotencyL-Fuc (PHL [3]) | β L-Fuc (affinity improvement factor) (PHL [3]) | β Azide1 (affinity improvement factor) (PHL [3]) | PotencyAzide1 (PHL [3]) | Kd (PHL [4]; ITC at 25 °C) | −TΔS (PHL [4]; ITC at 25 °C) | −ΔG (PHL [4]; ITC at 25 °C) | −ΔH (PHL [4]; ITC at 25 °C) | n (stoichiometry) (PHL [4]; ITC at 25 °C) | Potency L-Fuc (PHL [4]; ITC) | β L-Fuc (affinity improvement factor) (PHL [4]; ITC) | also measured |
| --- | --- | --- | --- | --- | --- | --- | --- | --- | --- | --- | --- | --- | --- | --- | --- | --- | --- | --- |
| C[C@@H]1O[C@@H](CCn2cc(COc3c4cc(C(C)(C)C)cc3Cc3cc(C(C)(C)C)cc(c3OCc3cn(CC[C@@H]5O[C@@H](C)[C@@H](O)[C@@H](O)[C@@H]5O)nn3)Cc3cc(C(C)(C)C)cc(c3OCc3cn(CC[C@@H]5O[C@@H](C)[C@@H](O)[C@@H](O)[C@@H]5O)nn3)Cc3cc(C(C)(C)C)cc(c3OCc3cn(CC[C@@H]5O[C@@H](C)[C@@H](O)[C@@H](O)[C@@H]5O)nn3)C4)nn2)[C@@H](O)[C@H](O)[C@@H]1O [Calixarene 6] | 0.195 ± 0.023 µM | 464 | 1,853 | 15 | 59 | 100 µM (≈ 167 µg/mL) | 31.3 | 7.8 | 0.5 | 2 | – | – | – | – | – | – | – | The lowest concentration able to aggregate P. asymbiotica cells [1]: 1.25 mM; β Azide1 (affinity improvement factor) (PHL [2]; basic unit azide 1, listed as calixarene 6): approximately 15 |
| C[C@@H]1O[C@@H](CCn2cc(COCC(COCc3cn(CC[C@@H]4O[C@@H](C)[C@@H](O)[C@@H](O)[C@@H]4O)nn3)(COCc3cn(CC[C@@H]4O[C@@H](C)[C@@H](O)[C@@H](O)[C@@H]4O)nn3)COCC(COCc3cn(CC[C@@H]4O[C@@H](C)[C@@H](O)[C@@H](O)[C@@H]4O)nn3)(COCc3cn(CC[C@@H]4O[C@@H](C)[C@@H](O)[C@@H](O)[C@@H]4O)nn3)COCc3cn(CC[C@@H]4O[C@@H](C)[C@@H](O)[C@@H](O)[C@@H]4O)nn3)nn2)[C@@H](O)[C@H](O)[C@@H]1O [Dendrimer 9] | 0.037 ± 0.003 µM | 1,631 | 9,762 | 52 | 311 | 25 µM (≈ 44.6 µg/mL) | 125 | 20.8 | 1.3 | 8 | 12.5 ± 0.6 µM | 10.4 ± 0.382 kcal/mol | 6.69 ± 0.311 kcal/mol | 17.1 ± 0.19 kcal/mol | 2.0 ± 0.0 | 112 | 19 | Kd (PHL [4]; ITC at 25 °C, listed as hexavalent dendrimer): 13 µM; β Azide1 (affinity improvement factor) (PHL [4]; ITC, basic unit azide 1): 1; PotencyAzide1 (PHL [4]; ITC, relative to azide 1): 8; β L-Fuc (affinity improvement factor) (PHL [2]; listed as dendrimer 9): over 1,600; PotencyL-Fuc (PHL [2]; listed as dendrimer 9): 9,800; PotencyAzide1 (PHL [2]; relative to azide 1, listed as dendrimer 9): 310; PotencyL-Fuc (PHL [3]; listed as dendrimer 9): more than 100 |
| C[C@@H]1OC(CCCCC2O[C@@H](C)[C@@H](O)[C@@H](O)[C@@H]2O)[C@@H](O)[C@H](O)[C@@H]1O (stereo partly drawn) [Difucoside 5, 1,4-bis(fucopyranosyl)butane] | 4.18 ± 0.42 µM | 43 | 86 | – | – | 200 µM (≈ 70.1 µg/mL) | 15.6 | 7.8 | – | – | 120 ± 11 µM | 3.61 ± 0.789 kcal/mol | 5.35 ± 0.502 kcal/mol | 8.96 ± 0.621 kcal/mol | 3.9 ± 0.2 | 12 | 6 | PotencyL-Fuc (PHL [3]; listed as difucoside 5): 16 |
| C[C@H](O)[C@@H](O)[C@@H](O)[C@H](O)C=O [L -Fuc, L-fucose, reference compound] | 362 ± 33 µM | 1 | 1 | – | – | 3,200 μM | 1 | 1 | – | – | 1400 µM | 10.3 ± 0.239 kcal/mol | 3.9 ± 0.096 kcal/mol | 14.2 ± 0.239 kcal/mol | – | 1 | 1 | n (stoichiometry), fixed during the fitting procedure (PHL [4]; ITC at 25 °C, fixed value based on α-Me-Fuc measurement and PHL/BGH crystal structure): 3* |

Source: PMC6797808, “Fucosylated inhibitors of recently identified bangle lectin from Photorhabdus asymbiotica” (Scientific Reports, 2019)
